# Measured values: ChEMBL document CHEMBL1201862, “PubChem BioAssay data set” (2004)
# Activity calls are given as the source filed them.
# Assays:
# [1] = target: FAD-linked sulfhydryl oxidase ALR (Homo sapiens, UniProt P55789); test: inhibitors of human ALR sulfhydryl oxidase, dose response, biochemical, H2O2 detection, luminescence, cherry-pick (AID 493248)
# [2] = inhibitors of SNCA 5'UTR-driven reporter translation, confirmation, H4 neuroglioma cells, luminescence (AID 1988); format: functional, cell-based
# [3] = Counterscreen for IDE inhibitors: Luminescence-based cell-based high throughput dose response assay to identify compounds that are cytotoxic to HEK cells. [Related pubchem assays: 434962 (Primary screen (IDE inhibitors in singlicate)), 449730 (Counterscreen (Cytotoxicity in triplicate)), 435028 (Confirmation (IDE inhibitors in triplicate)) …; format: functional; settings: HEK293
# [4] = inhibitors of firefly luciferase expression or activity, dose response, H4 neuroglioma cells, luminescence (AID 1990); format: functional, cell-based
# [5] = target: T1, Heat shock factor protein 1 (Mus musculus, UniProt P38532); test: inhibition of MG132-induced HSE-luciferase signal, confirmation, cell-based, NIH3T3, luminescence, dose retest (AID 2382); format: functional;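 note: NIH3T3 fibroblasts with HSF1-driven luciferase reporter stressed by proteasome inhibitor MG132; luminescence from HSF1-driven luciferase expression after 8 hours of MG132 stress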
# T1 sequence (P38532 whole entry): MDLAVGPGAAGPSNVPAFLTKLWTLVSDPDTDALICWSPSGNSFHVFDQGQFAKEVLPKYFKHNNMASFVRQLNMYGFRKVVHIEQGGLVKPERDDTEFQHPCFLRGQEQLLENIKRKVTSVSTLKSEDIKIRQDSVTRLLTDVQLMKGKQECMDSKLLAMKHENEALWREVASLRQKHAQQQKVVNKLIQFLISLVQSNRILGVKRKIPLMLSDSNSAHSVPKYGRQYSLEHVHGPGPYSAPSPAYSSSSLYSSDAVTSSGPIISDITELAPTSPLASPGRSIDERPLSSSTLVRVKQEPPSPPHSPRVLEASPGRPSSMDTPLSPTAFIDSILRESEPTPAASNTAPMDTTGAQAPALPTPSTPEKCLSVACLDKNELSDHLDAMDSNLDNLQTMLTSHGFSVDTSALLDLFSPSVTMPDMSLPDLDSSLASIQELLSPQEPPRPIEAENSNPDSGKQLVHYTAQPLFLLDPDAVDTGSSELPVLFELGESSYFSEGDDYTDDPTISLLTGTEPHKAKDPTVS
# [6] = target: T2, Insulin-degrading enzyme (Homo sapiens, UniProt P14735); test: Dose Response: Fluorescence polarization-based cell-based high throughput dose response assay for inhibitors of insulin-degrading enzyme (IDE). [Related pubchem assays: 434962 (Primary screen (IDE inhibitors in singlicate)), 449730 (Counterscreen (Cytotoxicity in triplicate)), 435028 (Confirmation (IDE inhibitors in triplicate)), 434984 (Summary …; format: functional
# T2 sequence (P14735 whole entry): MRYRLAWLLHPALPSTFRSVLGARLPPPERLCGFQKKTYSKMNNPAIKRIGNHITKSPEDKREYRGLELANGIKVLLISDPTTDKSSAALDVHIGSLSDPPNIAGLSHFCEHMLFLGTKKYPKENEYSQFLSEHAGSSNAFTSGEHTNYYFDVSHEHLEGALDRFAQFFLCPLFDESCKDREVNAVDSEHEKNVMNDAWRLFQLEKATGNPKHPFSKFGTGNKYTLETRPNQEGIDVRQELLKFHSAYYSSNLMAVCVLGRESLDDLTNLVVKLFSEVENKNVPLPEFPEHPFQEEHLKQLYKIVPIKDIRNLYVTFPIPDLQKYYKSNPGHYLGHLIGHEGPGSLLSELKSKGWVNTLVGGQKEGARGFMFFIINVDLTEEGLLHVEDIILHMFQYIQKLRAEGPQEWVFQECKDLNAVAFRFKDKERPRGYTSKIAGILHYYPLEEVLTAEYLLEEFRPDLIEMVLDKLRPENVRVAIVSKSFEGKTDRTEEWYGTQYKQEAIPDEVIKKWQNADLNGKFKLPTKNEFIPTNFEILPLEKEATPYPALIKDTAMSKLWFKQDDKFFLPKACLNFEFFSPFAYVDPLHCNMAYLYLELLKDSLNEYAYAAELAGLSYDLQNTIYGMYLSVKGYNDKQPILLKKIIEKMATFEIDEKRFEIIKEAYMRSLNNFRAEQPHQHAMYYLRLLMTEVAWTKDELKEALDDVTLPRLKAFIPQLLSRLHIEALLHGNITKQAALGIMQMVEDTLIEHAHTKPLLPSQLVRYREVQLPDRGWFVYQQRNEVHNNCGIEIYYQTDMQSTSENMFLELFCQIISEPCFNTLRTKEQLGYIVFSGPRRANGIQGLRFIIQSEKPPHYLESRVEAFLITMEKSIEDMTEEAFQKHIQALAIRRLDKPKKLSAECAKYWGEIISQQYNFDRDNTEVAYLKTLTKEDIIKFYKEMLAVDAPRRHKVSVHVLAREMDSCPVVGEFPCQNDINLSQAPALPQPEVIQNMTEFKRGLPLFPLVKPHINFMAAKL
# [7] = target: T3, Microphthalmia-associated transcription factor (Homo sapiens, UniProt O75030); test: TRPM1 promoter luciferase signal decrease, dose response, MITF inhibitor project, cell-based, SK-MEL-5, cherry-picked, set 3 (AID 493073); format: functional
# T3 sequence (O75030 whole entry): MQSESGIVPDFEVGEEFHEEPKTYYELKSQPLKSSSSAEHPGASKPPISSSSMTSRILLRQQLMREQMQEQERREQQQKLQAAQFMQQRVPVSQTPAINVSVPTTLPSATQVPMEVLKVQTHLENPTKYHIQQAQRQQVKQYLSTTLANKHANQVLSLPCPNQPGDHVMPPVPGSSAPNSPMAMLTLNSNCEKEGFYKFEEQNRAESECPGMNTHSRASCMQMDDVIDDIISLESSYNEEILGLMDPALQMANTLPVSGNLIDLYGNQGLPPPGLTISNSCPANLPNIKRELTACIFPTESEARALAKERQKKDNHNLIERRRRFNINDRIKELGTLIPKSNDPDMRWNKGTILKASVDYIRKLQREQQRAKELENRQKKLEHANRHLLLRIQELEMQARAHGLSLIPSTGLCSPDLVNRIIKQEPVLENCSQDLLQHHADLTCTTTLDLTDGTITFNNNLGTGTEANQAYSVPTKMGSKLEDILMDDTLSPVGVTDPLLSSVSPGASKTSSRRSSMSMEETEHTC
# [8] = target: Cytochrome P450 2C9 (Homo sapiens, UniProt P11712)
# Sequence of Cytochrome P450 2C9 (P11712 whole entry): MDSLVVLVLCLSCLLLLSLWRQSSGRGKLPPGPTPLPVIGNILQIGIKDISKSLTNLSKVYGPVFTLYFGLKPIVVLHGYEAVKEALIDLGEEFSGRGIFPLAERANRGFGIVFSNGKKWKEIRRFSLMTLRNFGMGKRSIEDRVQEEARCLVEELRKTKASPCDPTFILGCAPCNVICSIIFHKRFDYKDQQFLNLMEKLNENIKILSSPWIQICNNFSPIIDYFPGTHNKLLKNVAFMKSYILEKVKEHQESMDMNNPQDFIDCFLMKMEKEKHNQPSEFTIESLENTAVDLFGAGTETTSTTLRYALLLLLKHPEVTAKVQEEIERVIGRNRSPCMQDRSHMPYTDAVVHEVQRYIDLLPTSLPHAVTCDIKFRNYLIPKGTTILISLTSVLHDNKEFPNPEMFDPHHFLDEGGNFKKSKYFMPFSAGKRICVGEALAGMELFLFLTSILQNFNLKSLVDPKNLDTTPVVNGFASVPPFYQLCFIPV
# [9] = target: T4, Short transient receptor potential channel 4 (Mus musculus, UniProt Q9QUQ5); test: mouse TRPC4 channel inhibitors, dose response, cell-based, HEK293 TRPC4/mu-opioid, Fluo-4 calcium (AID 434942); format: functional;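 note: potency of inhibitors blocking the TRPC4 calcium response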
# T4 sequence (Q9QUQ5 whole entry): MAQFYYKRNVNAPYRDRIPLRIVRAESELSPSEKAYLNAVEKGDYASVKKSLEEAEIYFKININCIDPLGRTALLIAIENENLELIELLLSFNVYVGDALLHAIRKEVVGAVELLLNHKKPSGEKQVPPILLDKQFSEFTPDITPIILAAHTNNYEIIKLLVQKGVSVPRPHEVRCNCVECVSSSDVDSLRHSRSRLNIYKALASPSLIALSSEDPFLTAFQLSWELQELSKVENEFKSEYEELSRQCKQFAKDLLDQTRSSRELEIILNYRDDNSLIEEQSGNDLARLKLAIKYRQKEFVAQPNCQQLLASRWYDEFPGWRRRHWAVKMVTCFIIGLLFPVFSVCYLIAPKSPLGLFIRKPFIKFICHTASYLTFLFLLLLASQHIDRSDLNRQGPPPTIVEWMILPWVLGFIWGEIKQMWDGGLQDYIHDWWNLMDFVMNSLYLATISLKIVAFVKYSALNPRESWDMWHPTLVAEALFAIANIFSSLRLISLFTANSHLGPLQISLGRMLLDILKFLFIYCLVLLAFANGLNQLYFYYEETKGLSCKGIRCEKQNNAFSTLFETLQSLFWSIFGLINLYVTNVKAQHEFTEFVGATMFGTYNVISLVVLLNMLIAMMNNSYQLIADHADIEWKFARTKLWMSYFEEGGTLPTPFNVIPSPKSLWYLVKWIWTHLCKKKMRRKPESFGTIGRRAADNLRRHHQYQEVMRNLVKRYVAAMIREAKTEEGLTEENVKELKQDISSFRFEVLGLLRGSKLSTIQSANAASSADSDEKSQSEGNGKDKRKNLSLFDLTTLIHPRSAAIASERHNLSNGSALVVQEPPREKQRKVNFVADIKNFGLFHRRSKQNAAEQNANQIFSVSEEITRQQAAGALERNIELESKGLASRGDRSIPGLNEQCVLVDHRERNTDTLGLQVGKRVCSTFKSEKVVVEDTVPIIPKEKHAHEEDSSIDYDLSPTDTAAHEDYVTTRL
# [10] = test system: HEK293; test: cells; format: functional, cell-based; settings: Homo sapiens
# [11] = target: Nucleotide-binding oligomerization domain-containing protein 2 (Homo sapiens, UniProt Q9HC29); test: NOD2 signaling inhibitors, cell-based, luminescence, uHTS, HEK293 (AID 1566); format: functional
# Sequence of Nucleotide-binding oligomerization domain-containing protein 2 (Q9HC29 whole entry, the tested form may be a part): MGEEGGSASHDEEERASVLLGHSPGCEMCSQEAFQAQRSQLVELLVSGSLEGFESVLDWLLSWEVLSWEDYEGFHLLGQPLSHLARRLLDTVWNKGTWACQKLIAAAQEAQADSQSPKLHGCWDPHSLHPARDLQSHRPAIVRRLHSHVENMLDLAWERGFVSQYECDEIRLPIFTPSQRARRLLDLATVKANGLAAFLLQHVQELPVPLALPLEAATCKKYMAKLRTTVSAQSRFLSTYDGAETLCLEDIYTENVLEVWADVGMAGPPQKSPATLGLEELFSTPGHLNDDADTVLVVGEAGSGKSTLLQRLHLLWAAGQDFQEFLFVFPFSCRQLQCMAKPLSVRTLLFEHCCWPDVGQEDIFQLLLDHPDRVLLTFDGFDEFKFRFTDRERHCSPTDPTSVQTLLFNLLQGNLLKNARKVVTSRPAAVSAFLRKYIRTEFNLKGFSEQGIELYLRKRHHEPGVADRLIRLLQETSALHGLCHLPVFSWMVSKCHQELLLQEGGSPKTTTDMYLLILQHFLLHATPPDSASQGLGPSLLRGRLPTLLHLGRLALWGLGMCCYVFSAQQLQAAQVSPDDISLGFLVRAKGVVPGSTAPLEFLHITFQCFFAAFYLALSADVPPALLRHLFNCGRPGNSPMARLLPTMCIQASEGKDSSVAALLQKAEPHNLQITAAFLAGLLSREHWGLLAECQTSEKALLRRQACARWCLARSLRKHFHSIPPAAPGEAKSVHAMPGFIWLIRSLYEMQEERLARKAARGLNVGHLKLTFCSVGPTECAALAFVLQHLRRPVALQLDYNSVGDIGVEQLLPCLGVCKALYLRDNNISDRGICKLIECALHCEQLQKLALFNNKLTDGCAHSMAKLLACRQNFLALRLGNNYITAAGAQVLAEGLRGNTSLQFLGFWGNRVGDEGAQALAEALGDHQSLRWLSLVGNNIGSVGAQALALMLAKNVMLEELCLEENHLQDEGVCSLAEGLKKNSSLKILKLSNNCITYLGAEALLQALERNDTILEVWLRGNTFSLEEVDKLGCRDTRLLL
# [12] = test system: HEK293; test: NOD2 signaling inhibitors in MDP-stimulated cells, cell-based, uHTS, luminescence (AID 2001); format: functional; settings: Homo sapiens
# [13] = test system: HEK293; test: cells; format: functional, cell-based; settings: Homo sapiens; remark: listed apart in the source
# [14] = test system: HEK293; test: NOD1 signaling inhibitors, primary screen, cell-based, luminescence, uHTS (AID 1578); format: functional; settings: Homo sapiens
# [15] = test system: HEK293; test: cells; format: functional, cell-based; settings: Homo sapiens; remark: listed apart in the source
# [16] = target: Glyceraldehyde-3-phosphate dehydrogenase (Homo sapiens, UniProt P04406)
# Sequence of Glyceraldehyde-3-phosphate dehydrogenase (P04406 whole entry): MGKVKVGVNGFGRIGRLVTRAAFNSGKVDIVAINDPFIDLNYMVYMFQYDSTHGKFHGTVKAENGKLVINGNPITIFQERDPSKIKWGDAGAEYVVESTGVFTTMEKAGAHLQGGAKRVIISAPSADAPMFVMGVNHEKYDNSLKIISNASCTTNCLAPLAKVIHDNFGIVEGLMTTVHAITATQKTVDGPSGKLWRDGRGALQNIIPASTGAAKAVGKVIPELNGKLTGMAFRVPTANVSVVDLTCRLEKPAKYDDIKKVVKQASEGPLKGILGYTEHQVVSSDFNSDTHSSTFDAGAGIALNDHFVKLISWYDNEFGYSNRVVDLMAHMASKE
# [17] = target: Cytochrome P450 3A4 (Homo sapiens, UniProt P08684); settings: Potency;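 note: confirmatory qHTS run detecting inhibitors and substrates of CYP3A4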
# Sequence of Cytochrome P450 3A4 (P08684 whole entry): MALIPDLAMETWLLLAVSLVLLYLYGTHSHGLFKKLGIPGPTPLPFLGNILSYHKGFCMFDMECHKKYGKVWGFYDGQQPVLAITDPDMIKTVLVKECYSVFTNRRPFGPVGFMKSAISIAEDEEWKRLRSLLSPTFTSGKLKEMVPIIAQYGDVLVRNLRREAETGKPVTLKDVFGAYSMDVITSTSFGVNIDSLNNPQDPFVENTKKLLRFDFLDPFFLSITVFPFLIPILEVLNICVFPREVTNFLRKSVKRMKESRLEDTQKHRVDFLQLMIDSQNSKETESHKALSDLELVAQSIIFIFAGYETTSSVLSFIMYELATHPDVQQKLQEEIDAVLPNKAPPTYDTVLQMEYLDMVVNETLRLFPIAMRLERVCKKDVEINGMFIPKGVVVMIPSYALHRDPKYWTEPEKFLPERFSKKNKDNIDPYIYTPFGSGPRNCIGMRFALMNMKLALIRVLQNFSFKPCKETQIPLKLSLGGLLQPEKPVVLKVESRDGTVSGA
# Sequence of FAD-linked sulfhydryl oxidase ALR (P55789 whole entry): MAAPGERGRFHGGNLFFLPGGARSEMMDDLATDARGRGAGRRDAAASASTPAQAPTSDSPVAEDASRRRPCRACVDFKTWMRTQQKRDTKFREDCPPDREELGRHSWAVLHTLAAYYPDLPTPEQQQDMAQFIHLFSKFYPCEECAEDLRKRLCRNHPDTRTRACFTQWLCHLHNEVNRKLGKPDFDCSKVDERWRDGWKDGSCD
smiles,measurement,setting,value
CN(C)c1ccc(/C=C2\SC(=O)N(CCc3nnc(N)s3)C2=O)cc1,AC50,[1],1.87 µM (active)
same,EC50,[2],4.74 µM (active)
same,IC50,[3],47.8 µM (not active)
same,EC50,[4],8.39 µM (inconclusive)
same,EC50,[5],6.52 µM (inconclusive)
same,IC50,[6],> 55.9 µM (not active)
same,AC50,[7],2.54 µM (active)
O=S(=O)(CC(O)COc1ccccc1Cl)c1ccccc1 (stereo not drawn),AC50,[8],inconclusive
CC1CCc2c(sc3ncnc(SCC(=O)Nc4ccc(C(=O)O)cc4)c23)C1 (stereo not drawn),EC50,[9],6.68 µM (active)
Cc1ccc(NC(=O)Cc2cc(C(=O)O)c3ccccc3n2)c(C)c1,IC50,[10],11.7 µM (active)
same,EC50,[11],6.77 µM (active)
same,IC50,[12],8.76 µM (inactive)
same,IC50,[13],> 20 µM (inactive)
same,EC50,[14],7.04 µM (active)
same,IC50,[15],> 20 µM (inactive)
COc1ccccc1-c1nc(C#N)c(N2CCN(c3cccc(Cl)c3)CC2)o1,IC50,[10],18.5 µM (active)
same,EC50,[11],11.2 µM (active)
same,IC50,[12],17.4 µM (inactive)
same,IC50,[13],> 20 µM (inactive)
same,EC50,[14],8.65 µM (active)
same,IC50,[15],> 20 µM (inactive)
CCCn1c(=O)c2ccccc2n2c(SCCOc3ccc(C)cc3)nnc12,EC50,[9],1.68 µM (active)
O=C1CN=C(Nc2cccc(C(F)(F)F)c2)N1C1CCCC1,EC50,[9],6.68 µM (active)
O=C(O)c1ccc(OCc2ccc(C(=O)O)o2)cc1,IC50,[16],> 100 µM (not active)
CCOC(=O)C1C(=O)NC(SCC(N)=O)=C(C#N)C1c1ccccc1OCC (stereo not drawn),IC50,[3],> 55.7 µM (not active)
same,IC50,[6],> 6.21 µM (active)
CNC(=O)N(C)c1nnc(C(C)(C)C)s1 [TEBUTHIURON],AC50,[17],12.6 µM (inconclusive)
O=C(Nc1ccc(Cl)cn1)c1ccc(Br)c(S(=O)(=O)N2CCCCC2)c1,IC50,[10],7.73 µM (active)
same,EC50,[11],> 20 µM (inactive)
same,IC50,[12],9.77 µM (active)
same,IC50,[13],18.7 µM (active)
same,EC50,[14],9.56 µM (active)
same,IC50,[15],> 20 µM (inactive)
